Test results taken from PMC12993615 (The journal of pain, 2024).

Columns and labels:
[1] = biological target: T1, CCK1 [cholecystokinin A receptor] (Homo sapiens, UniProt P32238); experiment: Secondary pharmacology panel (87 targets); type: binding; settings: test concentration 30 µM
T1 sequence (P32238 1-428): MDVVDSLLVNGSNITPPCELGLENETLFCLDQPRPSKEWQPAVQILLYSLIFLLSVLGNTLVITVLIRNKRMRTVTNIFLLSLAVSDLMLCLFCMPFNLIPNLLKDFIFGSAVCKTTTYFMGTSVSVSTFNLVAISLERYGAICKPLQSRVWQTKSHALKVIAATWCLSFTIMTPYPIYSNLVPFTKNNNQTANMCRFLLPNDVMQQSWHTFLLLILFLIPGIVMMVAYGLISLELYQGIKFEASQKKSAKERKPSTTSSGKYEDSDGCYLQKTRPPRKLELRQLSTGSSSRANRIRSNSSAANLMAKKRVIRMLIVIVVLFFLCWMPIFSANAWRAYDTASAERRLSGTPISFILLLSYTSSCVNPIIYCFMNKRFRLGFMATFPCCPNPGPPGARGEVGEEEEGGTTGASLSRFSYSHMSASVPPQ
From the text: (§1) Findings were considered significant if ≥50% inhibition of ligand binding or ≥50% stimulation/inhibition were shown in biochemical assays. Those receptors with values ≥50% were further evaluated for binding and functional half-maximal inhibitory concentrations (IC50).

[2] = biological target: δ [DOP; delta opioid receptor] (Homo sapiens, UniProt P41143); experiment: Secondary pharmacology panel (87 targets); type: binding; settings: test concentration 30 µM
Chain of δ [DOP; delta opioid receptor] (P41143 whole entry): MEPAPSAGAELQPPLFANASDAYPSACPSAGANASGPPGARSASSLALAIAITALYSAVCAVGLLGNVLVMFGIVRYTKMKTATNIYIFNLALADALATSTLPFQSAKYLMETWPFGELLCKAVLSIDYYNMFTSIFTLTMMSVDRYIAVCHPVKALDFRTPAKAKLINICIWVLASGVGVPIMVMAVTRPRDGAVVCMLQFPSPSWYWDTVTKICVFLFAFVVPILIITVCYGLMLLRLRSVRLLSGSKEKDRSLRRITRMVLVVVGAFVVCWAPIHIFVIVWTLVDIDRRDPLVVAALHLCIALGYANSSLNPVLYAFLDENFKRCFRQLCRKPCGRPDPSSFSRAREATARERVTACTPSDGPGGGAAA
From the text: as §1

Compound: COc1ccccc1[C@@H]1[C@H](C(=O)O)[C@@H](c2ccccc2OC)[C@H]1C(=O)OC1Cc2ccccc2C1 [ART26.12, (+)–3-Indan-2-yloxycarbonyl-2,4-bis(2-methoxyphenyl)cyclobutanecarboxylic acid]
- binding to CCK1 in secondary pharmacology screening [1]: greater than 50%
- binding to δ (DOP) in secondary pharmacology screening [2]: greater than 50%
